# Paper PMC5653977 (EMBO Molecular Medicine, 2017)
# Read-outs that look alike come from different tables or passages of the source.
# Assays:
# EGFR dimers = EGFR dimers (Homo sapiens, UniProt P00533); assay: ERBB dimerization split TEV assay EGFR/EGFR; assay type: cell-based
# From the text: (§1) Gateway recombination cloning (Life Technologies) was applied for generating plasmids. Each ORF cloned was PCR‐amplified using the Pwo proofreading DNA polymerase (Roche) and BP‐recombined into the pDONR/Zeo plasmid (Life Technologies) to yield an entry vector, which was control‐digested using BsrGI to release the insert, and sequence‐verified. The following human ORFs were cloned using cDNA image clones ordered from Source BioScience: ERBB4 transcript variant JM‐a/CYT‐1 (Accession: BC112199), PIK3R1 (BC094795), GRB2 transcript variant 1 (BC000631), SHC1 transcript variant 2 (BC014158), STAT5A (BC027036), and SRC transcription variant 1 (BC051270). For EGFR, ERBB2, and ERBB3, entry vectors were obtained from the human CCSB kinase collection available from Addgene (Johannessen et al, 2010). Entry vectors were LR‐recombined into split TEV destination vectors [either pcDNA_attR1‐ORF‐attR2‐NTEV‐tevS‐GV‐2xHA_DEST or pTag4C_attR1‐ORF‐attR2‐CTEV‐2xHA_DEST, plasmids were described in detail before (Wehr et al, 2006)] to yield expression vectors, which were control‐digested using BsrGI. The plasmids for Nrg1 type I β1a and rat Nrg1 type III β1a have been described before (Wehr et al, 2006).
# [1] = molecular target: EGFR-NTEV-tevS-GV + ERBB2-CTEV (Homo sapiens, UniProt P00533+P04626); assay: ERBB dimerization split TEV assay EGFR/ERBB2; assay type: cell-based; details: 10 ng/ml EGFld
# From the text: as §1
# [2] = molecular target: ERBB2-NTEV-tevS-GV + ERBB3-CTEV (Homo sapiens, UniProt P04626+P21860); assay: ERBB dimerization split TEV assay ERBB2/ERBB3; assay type: cell-based; details: 10 ng/ml EGFld
# From the text: as §1
# GAL4/UAS system = assay: GAL4/UAS control assay; assay type: cell-based; details: GV and 10×UAS-Fluc plasmids in PC12 cells
# From the text: All counts (407 compounds and 96 controls) from the Nrg1‐ERBB4‐PIK3R1 split TEV compound screen were plotted against the z‐score using Mondrian, with pathway activators displaying high values and inhibitors low values. For the secondary analysis, we selected all candidates that were at least three standard deviations away from the mean. […] For the GAL4/UAS assay, GAL4‐VP16 (GV) and 10×UAS firefly luciferase (10×UAS‐Fluc) plasmids were transfected into PC12 cells. For TEV protease activity assays, a transmembrane‐localized TEV protease (TM‐TEV) was expressed in PC12 cells with a transmembrane‐localized and TEV‐cleavable GV (TM‐tevS‐GV) and the 10×UAS‐Fluc reporter. […] EGFld was applied as Nrg1 stimulus. In both control assays, the assay activity (firefly luciferase, black lines) was similar to the toxicity levels (gray lines). Data are shown as mean, a nd error bars represent SEM, n = 6. The insets depict IC50 values in μM.
# ERBB4 [3] = molecular target: ERBB4 (Homo sapiens, UniProt Q15303); assay: Western blot of ERBB4 phosphorylation in transfected PC12 cells; assay type: cell-based; details: PC12 cells transfected with ERBB4-NTEV-tevS-GV, 10 ng/ml EGFld, 10 μM, 1 h
# Sequence of ERBB4 (Q15303 26-1308): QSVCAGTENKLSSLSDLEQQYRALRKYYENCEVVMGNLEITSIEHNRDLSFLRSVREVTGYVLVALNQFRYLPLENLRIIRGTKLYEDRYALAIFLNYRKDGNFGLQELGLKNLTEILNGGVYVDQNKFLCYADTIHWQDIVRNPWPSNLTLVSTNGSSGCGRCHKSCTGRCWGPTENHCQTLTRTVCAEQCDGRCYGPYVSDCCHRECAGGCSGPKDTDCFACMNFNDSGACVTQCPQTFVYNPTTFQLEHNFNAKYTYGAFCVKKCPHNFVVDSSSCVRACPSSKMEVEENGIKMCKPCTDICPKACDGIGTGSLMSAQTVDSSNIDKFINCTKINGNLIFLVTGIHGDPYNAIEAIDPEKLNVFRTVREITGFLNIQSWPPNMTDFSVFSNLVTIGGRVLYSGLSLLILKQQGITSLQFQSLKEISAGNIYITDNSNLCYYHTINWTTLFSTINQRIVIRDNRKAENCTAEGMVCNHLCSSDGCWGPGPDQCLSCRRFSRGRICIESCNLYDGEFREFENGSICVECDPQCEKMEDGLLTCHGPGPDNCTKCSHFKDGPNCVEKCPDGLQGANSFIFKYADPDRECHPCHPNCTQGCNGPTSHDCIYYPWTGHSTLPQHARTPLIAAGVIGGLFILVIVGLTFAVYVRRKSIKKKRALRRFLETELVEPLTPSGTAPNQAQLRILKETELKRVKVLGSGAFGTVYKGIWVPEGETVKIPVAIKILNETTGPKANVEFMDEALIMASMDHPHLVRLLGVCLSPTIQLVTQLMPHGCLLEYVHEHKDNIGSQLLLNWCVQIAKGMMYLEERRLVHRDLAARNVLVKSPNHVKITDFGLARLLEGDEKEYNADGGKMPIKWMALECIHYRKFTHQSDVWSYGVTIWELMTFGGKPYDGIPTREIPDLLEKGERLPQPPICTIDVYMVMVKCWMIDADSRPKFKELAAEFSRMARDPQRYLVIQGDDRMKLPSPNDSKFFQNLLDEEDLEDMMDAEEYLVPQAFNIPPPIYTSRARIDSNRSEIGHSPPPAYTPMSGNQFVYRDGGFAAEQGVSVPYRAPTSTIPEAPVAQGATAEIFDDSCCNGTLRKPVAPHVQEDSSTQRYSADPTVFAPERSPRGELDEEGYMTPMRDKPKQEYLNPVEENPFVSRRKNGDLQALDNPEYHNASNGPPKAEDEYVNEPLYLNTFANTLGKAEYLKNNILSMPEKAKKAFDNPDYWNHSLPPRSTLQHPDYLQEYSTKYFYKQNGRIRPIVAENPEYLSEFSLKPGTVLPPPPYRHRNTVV
# Method: After 24 h of expression, cells were treated as indicated and lysed in a 1% Triton‐X lysis buffer (50 mM Tris [pH 7.5], 150 mM NaCl, 1% Triton X‐100, 1 mM EGTA) supplemented with 10 mM NaF, 1 mM […], 1 mM ZnCl2 4.5 mM Na4P20_7, as phosphatase inhibitors, and the complete protease inhibitor cocktail (Roche).
# (§2) Each blot was replicated two times.
# Erbb4 [4] = molecular target: T1, Erbb4 (Mus musculus, UniProt Q61527); assay: Western blot of phospho-Erbb4 in prefrontal cortex of spironolactone-treated mice; assay type: in vivo; details: Nrg1-tg mice, 50 mg/kg s.c. daily for 21 days, prefrontal cortex lysates
# T1 construct: from tissue; host or cells: prefrontal cortex of Nrg1-tg and wt mice (C57Bl/6)
# T1 sequence (Q61527 26-1308): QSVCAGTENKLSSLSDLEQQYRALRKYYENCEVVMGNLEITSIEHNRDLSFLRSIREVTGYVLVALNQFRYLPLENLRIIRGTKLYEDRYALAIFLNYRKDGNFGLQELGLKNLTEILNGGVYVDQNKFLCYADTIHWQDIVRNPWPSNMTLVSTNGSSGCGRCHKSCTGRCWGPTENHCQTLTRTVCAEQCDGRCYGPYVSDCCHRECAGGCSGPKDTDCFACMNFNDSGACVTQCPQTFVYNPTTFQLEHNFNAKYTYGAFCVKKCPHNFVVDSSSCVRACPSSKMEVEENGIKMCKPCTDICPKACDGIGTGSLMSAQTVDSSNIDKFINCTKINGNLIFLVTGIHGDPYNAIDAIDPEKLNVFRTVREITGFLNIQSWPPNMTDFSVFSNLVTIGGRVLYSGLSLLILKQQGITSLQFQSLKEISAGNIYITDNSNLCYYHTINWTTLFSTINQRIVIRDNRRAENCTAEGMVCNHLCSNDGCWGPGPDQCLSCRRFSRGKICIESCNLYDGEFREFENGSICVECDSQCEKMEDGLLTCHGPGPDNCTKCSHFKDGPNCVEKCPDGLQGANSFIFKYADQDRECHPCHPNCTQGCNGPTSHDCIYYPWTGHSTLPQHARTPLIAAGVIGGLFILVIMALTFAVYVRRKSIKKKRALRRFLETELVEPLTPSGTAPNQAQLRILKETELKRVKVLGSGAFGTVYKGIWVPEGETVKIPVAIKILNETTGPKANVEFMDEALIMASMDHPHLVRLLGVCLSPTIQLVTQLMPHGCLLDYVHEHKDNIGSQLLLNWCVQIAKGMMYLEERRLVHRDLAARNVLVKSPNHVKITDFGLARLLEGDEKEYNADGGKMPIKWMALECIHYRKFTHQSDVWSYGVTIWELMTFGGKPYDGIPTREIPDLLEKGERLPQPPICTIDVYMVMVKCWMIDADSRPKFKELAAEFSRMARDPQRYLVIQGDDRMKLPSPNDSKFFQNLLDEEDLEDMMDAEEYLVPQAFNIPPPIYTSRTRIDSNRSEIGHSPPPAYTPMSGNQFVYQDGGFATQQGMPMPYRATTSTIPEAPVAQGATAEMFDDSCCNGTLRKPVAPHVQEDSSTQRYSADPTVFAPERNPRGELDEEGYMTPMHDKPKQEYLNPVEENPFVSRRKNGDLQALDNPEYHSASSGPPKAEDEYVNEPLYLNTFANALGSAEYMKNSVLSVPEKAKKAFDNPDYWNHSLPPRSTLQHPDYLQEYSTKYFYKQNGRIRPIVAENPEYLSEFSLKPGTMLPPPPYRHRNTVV
# Method: (§3) For the generation of lysates, the isolated tissue was immediately placed into cooled (4°C) sucrose buffer (320 mM sucrose, 10 mM Tris–HCl, 1 mM NaHCO3, 1 mM MgCl2, supplemented with 10 mM NaF, 1 mM […], 1 mM ZnCl2, 4.5 mM Na4P20_7 as phosphatase inhibitors, and the complete protease inhibitor cocktail (Roche)), homogenized using an ultra‐turrax (IKA GmbH, Staufen, Germany), sonicated (3 pulses for 10 s), and denatured for 10 min at 70°C in LDS sample buffer.
# as §2
# Treatment was continued throughout the behavioral analysis period.
# ERK = assay: Western blot of pERK in prefrontal cortex of spironolactone-treated mice; assay type: in vivo, mouse; details: Nrg1-tg and wt mice, 50 mg/kg s.c. daily for 21 days, prefrontal cortex lysates
# Method: as §3, §2
# (§4) Treatment was continued throughout the behavioral analysis period. To avoid injection‐induced stress prior to behavioral testing, mice were injected in the afternoon, after the entire cohort has completed the behavioral paradigm.
# Nrg1-tg and wt mice [5] = assay: Prepulse inhibition (PPI); assay type: in vivo, mouse
# Method: (§5) For behavioral testing, age‐matched male mice (8–16 weeks) on C57Bl/6 background that constitutively overexpress the 2xHA‐tagged Nrg1 type III β1a isoform (Nrg1‐tg) under the control of the mouse Thy1.2 promoter (Velanac et al, 2012) and their wild‐type (wt) littermates as controls were used. Animals were group‐housed in the same ventilated sound‐attenuated rooms under a 12‐h light/12‐h dark schedule (lights on at 8:00 am) at an ambient temperature of 21°C with food and water available ad libitum. One week prior to experiments, mice were separated into single cages and habituated to the experimental rooms. To minimize the influence of the circadian rhythm on drug actions, the treatment groups were analyzed at balanced time points during the light phase. […] All animal experiments were conducted in accordance with NIH principles of laboratory animal care and were approved by the Government of Lower Saxony, Germany, in accordance with the German Animal Protection Law.
# as §4
# The startle response was measured using a two test cabinet (SR‐LAB, San Diego Instruments) using a protocol as described in Brzózka et al (2010).
# Nrg1-tg and wt mice [6] = assay: Light-dark preference test; assay type: in vivo, mouse; details: 50 mg/kg s.c. daily
# Method: as §5, §4
# Nrg1-tg and wt mice [7] = assay: Hot plate test; assay type: in vivo, mouse; details: 50 mg/kg s.c. daily
# Method: as §5, §4
# [8] = 50 mg/kg s.c. daily for 3 weeks and throughout phenotyping, vs vehicle
# [9] = before vs after chronic treatment, 50 mg/kg s.c. daily
# Sequence of EGFR dimers (P00533 25-1210): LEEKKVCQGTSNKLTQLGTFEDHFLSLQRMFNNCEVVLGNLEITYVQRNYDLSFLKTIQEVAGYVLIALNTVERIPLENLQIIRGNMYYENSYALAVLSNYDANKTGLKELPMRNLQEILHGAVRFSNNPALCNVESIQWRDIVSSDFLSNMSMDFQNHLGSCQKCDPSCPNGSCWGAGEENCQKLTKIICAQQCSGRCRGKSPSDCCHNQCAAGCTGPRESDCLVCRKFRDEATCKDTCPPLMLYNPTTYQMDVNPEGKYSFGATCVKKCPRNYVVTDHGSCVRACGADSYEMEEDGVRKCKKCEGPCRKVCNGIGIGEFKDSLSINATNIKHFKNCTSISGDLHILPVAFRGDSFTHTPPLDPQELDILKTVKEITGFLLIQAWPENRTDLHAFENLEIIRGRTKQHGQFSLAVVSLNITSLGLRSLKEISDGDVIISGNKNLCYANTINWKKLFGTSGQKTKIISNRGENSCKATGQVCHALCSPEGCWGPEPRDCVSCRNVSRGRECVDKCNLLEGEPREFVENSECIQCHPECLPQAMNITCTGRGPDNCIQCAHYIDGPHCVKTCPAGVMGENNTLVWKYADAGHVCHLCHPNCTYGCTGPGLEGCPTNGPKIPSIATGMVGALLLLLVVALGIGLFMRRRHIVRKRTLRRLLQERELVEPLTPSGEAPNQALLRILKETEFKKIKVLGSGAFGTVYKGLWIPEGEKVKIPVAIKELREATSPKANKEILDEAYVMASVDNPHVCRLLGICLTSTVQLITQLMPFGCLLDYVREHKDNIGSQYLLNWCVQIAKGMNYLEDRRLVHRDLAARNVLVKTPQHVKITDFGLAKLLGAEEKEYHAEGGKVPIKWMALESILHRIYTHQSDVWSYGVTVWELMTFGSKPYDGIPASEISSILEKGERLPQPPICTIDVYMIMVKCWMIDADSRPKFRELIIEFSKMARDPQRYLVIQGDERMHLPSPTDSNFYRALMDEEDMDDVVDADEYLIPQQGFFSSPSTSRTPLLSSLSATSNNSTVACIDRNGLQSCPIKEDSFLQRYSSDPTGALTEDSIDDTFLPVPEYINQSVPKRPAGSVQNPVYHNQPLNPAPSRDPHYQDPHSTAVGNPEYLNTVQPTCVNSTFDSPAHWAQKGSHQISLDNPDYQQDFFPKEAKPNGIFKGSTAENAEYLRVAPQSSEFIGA
# Sequence of EGFR dimers (P00533 25-1210): as above
structure (smiles),measurement,setting,value
CC(=O)S[C@@H]1CC2=CC(=O)CC[C@]2(C)[C@H]2CC[C@@]3(C)[C@@H](CC[C@@]34CCC(=O)O4)[C@H]12 [Spironolactone],IC50,"EGFR dimers; 100 ng/ml EGF as stimulus, read-out: IC50, EGFR dimers, stimulus EGF",1.74 µM
same,IC50,"EGFR dimers; PC12 cells, 10 ng/ml EGFld, read-out: IC50, EGFR-NTEV-tevS-GV + EGFR-CTEV",8.5 µM
same,IC50,[1],4.66 µM
same,IC50,[2],9.23 µM
same,effect on activity of the GAL4/UAS system,GAL4/UAS system,does not affect activities of control assays
same,ERBB4 phosphorylation levels at Tyr1056,ERBB4 [3],reduces but not abolishes the phosphorylation levels
same,phospho-Erbb4 levels (p-ERBB4-Y1284 antibody),Erbb4 [4],robust reduction
same,pERK (downstream signaling),ERK,"neither modulated by Nrg1 overexpression, nor by spironolactone treatment"
same,"PPI in Nrg1-tg mice, four-arm study",Nrg1-tg and wt mice [5]; [8],significantly enhanced
same,"PPI in wt mice, four-arm study",Nrg1-tg and wt mice [5]; [8],did not influence PPI
same,"PPI in Nrg1-tg mice, pilot two-arm study",Nrg1-tg and wt mice [5]; [9],significantly improved
same,"PPI in wt controls, pilot two-arm study",Nrg1-tg and wt mice [5]; [9],had no effect
same,time in the light compartment,Nrg1-tg and wt mice [6],spent more time in the light compartment
same,"pain sensitivity (latency to the first reaction, hot plate 52°C)",Nrg1-tg and wt mice [7],significantly decreased levels of pain sensitivity
